Source: patent US7642274B2, “Inhibitor of pain threshold decrease” (Santen Pharmaceutical Co., Ltd., priority 2003, dated 2010)
Counter-ions that a name gives are not always drawn.

Columns and labels:
[1] = tested on: repetitive cold stress rat models; test: Test for inhibition of pain threshold decrease by repetitive cold stress (continuous administration), Randall-Selitto method; format: in vivo; details: for inhibition in vivo at 3 mg/kg: Rattus norvegicus, 192 h, day 8 after applying the repetitive cold stress, orally 3 mg/kg once a day, with stress, average of 5 or 6 cases, read-out: Rate of inhibition of pain threshold decrease (%); for inhibition in vivo at 3 mg/kg / Rate of inhibition of pain threshold decrease (%): po; for Rate of inhibition of pain threshold decrease (%): rat, in vivo
[2] = tested on: repetitive cold stress rat models; test: Test for inhibition of pain threshold decrease by repetitive cold stress (single administration), Randall-Selitto method; format: in vivo; details: 24 hours after single administration on day 8 of repetitive cold stress; orally 3 mg/kg; with stress; average of 6 cases

SMILES	inhibition in vivo at 3 mg/kg [1]	Pain threshold (mmHg) [2]	Rate of inhibition of pain threshold decrease (%) [2]	Rate of inhibition of pain threshold decrease (%) ([1]; 3 mg/kg)	further results
COc1ccc(OCCCN(CCO)C(C)C)c(C2Sc3cc(Cl)ccc3N2C(C)=O)c1.Cl (single isomer, unassigned; (+)) [Compound A, (+)-3-acetyl-6-chloro-2-[2-(3-(N-(2-hydroxyethyl)-N-isopropylamino)propoxy)-5-methoxyphenyl]benzothiazoline hydrochloride]	52.1%	21.7 mmHg	0%		
CC(=O)OC(C(=O)O)C(OC(C)=O)C(=O)O.COCCN(CCCOc1ccc(OC)cc1C1Sc2cc(Cl)ccc2N1C(C)=O)C(C)C (single isomer, unassigned; (+)) [Compound B, (+)-3-acetyl-6-chloro-2-[2-(3-(N-(2-methoxyethyl)-N-isopropylamino)propoxy)-5-methoxyphenyl]benzothiazolinediacetyl tartrate]		21.5 mmHg	−1.9%	53.9%	
CC(=O)OC(C(=O)O)C(OC(C)=O)C(=O)O.CCOCCN(CCCOc1ccc(OC)cc1C1Sc2cc(Cl)ccc2N1C(C)=O)C(C)C (single isomer, unassigned; (+)) [Compound C, (+)-3-acetyl-6-chloro-2-[2-(3-(N-(2-ethoxyethyl)-N-isopropylamino)propoxy)-5-methoxyphenyl]benzothiazolinediacetyl tartrate]		21.7 mmHg	0%	73.4%	
COc1ccc(OCCCCl)c(C2Sc3cc(Cl)ccc3N2C(C)=O)c1 (single isomer, unassigned; (+)) [Compound F, (+)-3-acetyl-6-chloro-2-[2-(3-chloropropoxy)-5-methoxyphenyl]benzothiazoline hydrochloride]	43.1%				
COc1ccc(OCCCN(CCOC(C)=O)C(C)C)c(C2Sc3cc(Cl)ccc3N2C(C)=O)c1 (single isomer, unassigned; (+)) [Compound H, (+)-2-[2-(3-(N-(2-acetoxyethyl)-N-isopropylamino)propoxy)-5-methoxyphenyl]-3-acetyl-6-chlorobenzothiazoline hydrochloride]	34.5%				
COCOCCN(CCCOc1ccc(OC)cc1C1Sc2cc(Cl)ccc2N1C(C)=O)C(C)C.Cl (single isomer, unassigned; (+)) [Compound I, (+)-3-acetyl-6-chloro-2-[2-(3-(N-isopropyl-(N-methoxymethyloxyethyl)amino)propoxy)-5-methoxyphenyl]benzothiazoline hydrochloride]				43.1%	
COc1ccc(OC(C)CCN(CCO)C(C)C)c(C2Sc3cc(Cl)ccc3N2C(C)=O)c1 (stereo not drawn) [Compound G, 3-acetyl-6-chloro-2-[2-(3-(N-(2-hydroxyethyl)-N-isopropylamino)-1-methylpropoxy)-5-methoxyphenyl]benzothiazoline hydrochloride]	32.8%				
CCOCCN(CCCOc1ccc(OC)cc1C1Sc2cc(Cl)ccc2N1C(C)=O)C(C)C.Cl (stereo not drawn) [Compound K, 3-acetyl-6-chloro-2-[2-(3-(N-(2-ethoxyethyl)-N-isopropylamino)propoxy)-5-methoxyphenyl]benzothiazolinediacetyl hydrochloride]					Rate of inhibition of pain threshold decrease (%) ([1]; 10 mg/kg): 62.7%
O=C(O)Cc1ccccc1Nc1c(Cl)cccc1Cl [Compound L, Diclofenac, reference compound]					activity on inhibiting a decrease in pain threshold ([1]; result in words, continuous administration once a day, day 8 of repetitive cold stress): not observed at all
